Usually IC50 stands for the point on the concentration scale where inhibition reaches its midpoint.

We go through 26 compounds from US8664220B2, “Polycyclic compounds as lysophosphatidic acid receptor antagonists” (Amira Pharmaceuticals, Inc., priority 2009, dated 2014).

Bounds are passed on as bounds.

The assay concerns the target T1, human LPA1 (Homo sapiens, UniProt Q92633).
T1 construct: the full-length cDNA for human LPA1 was obtained by PCR of the reverse transcription reaction; expressed in transfected cells
The assay is described as follows: LPA1 calcium flux assay. Type of assay: cell-based. The note with it: human LPA1 expressing CHO cells, stimulated with 10 nM LPA; read-out: HLPA1 Ca Flux IC50. As for the experimental part:
Establishment of a CHO Cell Line Stably Expressing Human LPA1
A 1.1 kb cDNA encoding the human LPA1 receptor was cloned from human lung.
Human lung RNA (Clontech Laboratories, Inc. USA) was reverse transcribed using the RETROscript kit (Ambion, Inc.) and the full-length cDNA for human LPA1 was obtained by PCR of the reverse transcription reaction. The nucleotide sequence of the cloned human LPA1 was determined by sequencing and confirmed to be identical to the published human LPA1 sequence (An et al. Biochem. Biophys. Res. Commun. 231:619 (1997). The cDNA was cloned into the pcDNA5/FRT expression plasmid and transfected in CHO cells using lipofectamine 2000 (Invitrogen Corp., USA). Clones stably expressing human LPA1 were selected using hygromycin and identified as cells that show Ca-influx in response to LPA.
LPA1 and LPA3 Calcium Flux Assays
Human LPA1 or LPA3 expressing CHO cells are seeded at 20,000-45,000 cells per well in a 96-well poly-D-lysine coated plate one or two days before the assay. Prior to the assay, the cells are washed once with PBS and then cultured in serum-free media overnight. On the day of the assay, a calcium indicator dye (Calcium 4, Molecular Devices) in assay buffer (HBSS with Ca^2+ and Mg^2+ and containing 20 mM Hepes and 0.3% fatty-acid free human serum albumin) is added to each well and incubation continued for 1 hour at 37° C. 10 μl of test compounds in 2.5% DMSO are added to the cells and incubation continued at room temperature for 30 minutes. Cells are the stimulated by the addition of 10 nM LPA and intracellular Ca^2+ measured using the Flexstation 3 (Molecular Devices). IC50s are determined using Graphpad prism analysis of drug titration curves.

T1 sequence (Q92633 whole entry): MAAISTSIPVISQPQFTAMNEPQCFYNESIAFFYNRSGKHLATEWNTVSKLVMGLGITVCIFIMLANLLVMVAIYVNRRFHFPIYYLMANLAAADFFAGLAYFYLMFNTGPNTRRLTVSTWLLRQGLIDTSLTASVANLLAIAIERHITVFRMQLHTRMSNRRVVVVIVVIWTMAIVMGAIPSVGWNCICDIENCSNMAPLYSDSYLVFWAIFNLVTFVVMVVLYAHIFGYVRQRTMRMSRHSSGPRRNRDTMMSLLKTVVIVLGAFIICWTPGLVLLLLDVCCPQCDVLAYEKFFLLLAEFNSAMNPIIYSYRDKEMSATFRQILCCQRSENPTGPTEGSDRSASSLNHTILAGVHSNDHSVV

Turning to `Cc1noc(-c2ccc(-c3ccc(C4(C(=O)O)CC4)cc3)cc2)c1CN1C(=O)O[C@H](c2ccccc2)[C@@H]1C` [Compound 1-16, 1-{4′-[3-Methyl-4-((4S,5R)-4-methyl-2-oxo-5-phenyl-oxazolidin-3-ylmethyl)-isoxazol-5-yl]-biphenyl-4-yl}-cyclopropanecarboxylic acid], the half-maximal inhibitory concentration (IC50) is less than 0.3 µM.
In the case of `Cc1noc(-c2ccc(-c3ccc(C4(C(=O)O)CC4)cc3)cc2)c1CN1CCC(c2ccccc2)C1` (centres unmarked) [Compound 1-17, 1-{4′-[3-Methyl-4-(3-phenyl-pyrrolidin-1-ylmethyl)-isoxazol-5-yl]-biphenyl-4-yl}-cyclopropanecarboxylic acid], the IC50 is less than 0.3 µM.
As for `Cc1noc(-c2ccc(-c3ccc(C4(C(=O)O)CC4)cc3)cc2)c1CN1CCCC(c2ccccc2)C1` (centres unmarked) [Compound 1-18, 1-{4′-[3-Methyl-4-(3-phenyl-piperidin-1-ylmethyl)-isoxazol-5-yl]-biphenyl-4-yl}-cyclopropanecarboxylic acid], the figure is less than 0.3 µM; as for `Cc1noc(-c2ccc(-c3ccc(C4(C(=O)O)CC4)cc3)cc2)c1CNc1nnc(-c2ccccc2)o1` [Compound 1-19, 1-(4′-{3-Methyl-4-[(5-phenyl-[1,3,4]oxadiazol-2-ylamino)-methyl]-isoxazol-5-yl}-biphenyl-4-yl)-cyclopropanecarboxylic acid], less than 0.3 µM; as for `Cc1noc(-c2ccc(-c3ccc(C4(C(=O)O)CC4)cc3)cc2)c1Cn1nncc1-c1ccccc1` [Compound 1-20, 1-{4′-[3-Methyl-4-(5-phenyl-[1,2,3]triazol-1-ylmethyl)-isoxazol-5-yl]-biphenyl-4-yl}-cyclopropanecarboxylic acid], 0.3 to 1 µM.
As for `Cc1noc(-c2ccc(-c3ccc(C4(C(=O)O)CC4)cc3)cc2)c1Cn1nnc(-c2ccccc2)n1` [Compound 1-21, 1-{4′-[3-Methyl-4-(5-phenyl-tetrazol-2-ylmethyl)-isoxazol-5-yl]-biphenyl-4-yl}-cyclopropanecarboxylic acid], the figure is less than 0.3 µM; as for `Cc1noc(-c2ccc(-c3ccc(C4(C(=O)O)CC4)cc3)cc2)c1CN1CC(c2ccccc2)OC1=O` (centres unmarked) [Compound 1-22, 1-{4′-[3-Methyl-4-(2-oxo-5-phenyl-oxazolidin-3-ylmethyl)-isoxazol-5-yl]-biphenyl-4-yl}-cyclopropanecarboxylic acid], less than 0.3 µM.
Turning to `Cc1noc(-c2ccc(-c3ccc(C4(C(=O)O)CC4)cc3)cc2)c1Cn1cc(-c2ccccc2)cn1` [Compound 1-23, 1-{4′-[3-Methyl-4-(4-phenyl-pyrazol-1-ylmethyl)-isoxazol-5-yl]-biphenyl-4-yl}-cyclopropanecarboxylic acid], the half-inhibitory concentration (IC50) is less than 0.3 µM.
As for `Cc1noc(-c2ccc(-c3ccc(C4(C(=O)O)CC4)cc3)cc2)c1-c1nnc(Cc2ccccc2)o1` [Compound 1-24, 1-{4′-[4-(5-Benzyl-[1,3,4]oxadiazol-2-yl)-3-methyl-isoxazol-5-yl]-biphenyl-4-yl}-cyclopropanecarboxylic acid], the figure is 1 to 50 µM.
The same measure for `Cc1noc(-c2ccc(-c3ccc(C4(C(=O)O)CC4)cc3)cc2)c1C1CN(Cc2ccccc2)C(=O)O1` (centres unmarked) [Compound 1-28, 1-{4′-[4-(3-Benzyl-2-oxo-oxazolidin-5-yl)-3-methyl-isoxazol-5-yl]-biphenyl-4-yl}-cyclopropanecarboxylic acid]: less than 0.3 µM; for `Cc1noc(-c2ccc(-c3ccc(C4(C(=O)O)CC4)cc3)cc2)c1Cc1nnc(Cc2ccccc2)o1` [Compound 1-29, 1-{4′-[4-(5-Benzyl-[1,3,4]oxadiazol-2-ylmethyl)-3-methyl-isoxazol-5-yl]-biphenyl-4-yl}-cyclopropanecarboxylic acid]: less than 0.3 µM; for `Cc1noc(-c2ccc(-c3ccc(C4(C(=O)O)CC4)cc3)cc2)c1C(O)c1nnc(Cc2ccccc2)o1` (centres unmarked) [Compound 1-30, 1-(4′-{4-[(5-Benzyl-[1,3,4]oxadiazol-2-yl)-hydroxy-methyl]-3-methyl-isoxazol-5-yl}-biphenyl-4-yl)-cyclopropanecarboxylic acid]: less than 0.3 µM.
As for `Cc1noc(-c2ccc(-c3ccc(C4(C(=O)O)CC4)cc3)cc2)c1Cc1cn(Cc2ccccc2)nn1` [Compound 1-31, 1-{4′-[4-(1-Benzyl-1H-[1,2,3]triazol-4-ylmethyl)-3-methyl-isoxazol-5-yl]-biphenyl-4-yl}-cyclopropanecarboxylic acid], the figure is less than 0.3 µM; as for `Cc1noc(-c2ccc(-c3ccc(C4(CC(=O)O)CC4)cc3)cc2)c1C(O)CCCc1ccc(Cc2ccccc2)cc1` (centres unmarked) [Compound 1-32, [1-(4′-{4-[4-(4-Benzyl-phenyl)-1-hydroxy-butyl]-3-methyl-isoxazol-5-yl}-biphenyl-4-yl)-cyclopropyl]-acetic acid], 1 to 50 µM.
As to `Cc1noc(-c2ccc(-c3ccc(C4(CC(=O)O)CC4)cc3)cc2)c1C(O)CCCc1ccc(Oc2ccccc2)cc1` (centres unmarked) [Compound 1-33, [1-(4′-{-4-[1-Hydroxy-4-(4-phenoxy-phenyl)-butyl]-3-methyl-isoxazol-5-yl}-biphenyl-4-yl)-cyclopropyl]-acetic acid], the IC50 was 1 to 50 µM.
The same measure for `Cc1noc(-c2ccc(-c3ccc(C4(C(=O)O)CC4)cc3)cc2)c1NC1CCN(Cc2ccccc2)CC1` [Compound 1-36, 1-{4′-[4-(1-Benzyl-piperidin-4-ylamino)-3-methyl-isoxazol-5-yl]-biphenyl-4-yl}-cyclopropanecarboxylic acid]: 1 to 50 µM.
The same measure for `Cc1noc(-c2ccc(-c3ccc(C4(CC(=O)O)CC4)cc3)cc2)c1NC1CCN(Cc2ccccc2)CC1` [Compound 1-37, (1-{4′-[4-(1-Benzyl-piperidin-4-ylamino)-3-methyl-isoxazol-5-yl]-biphenyl-4-yl}-cyclopropyl)-acetic acid]: 1 to 50 µM; for `Cc1noc(-c2ccc(-c3ccc(C4(C(=O)O)CC4)cc3)cc2)c1C(O)c1nnc(-c2ccccc2)o1` (centres unmarked) [Compound 1-38, 1-(4′-{4-[Hydroxy-(5-phenyl-[1,3,4]oxadiazol-2-yl)-methyl]-3-methyl-isoxazol-5-yl}-biphenyl-4-yl)-cyclopropanecarboxylic acid]: less than 0.3 µM.
Regarding `Cc1noc(-c2ccc(-c3ccc(C4(CC(=O)O)CC4)cc3)cc2)c1C(O)c1nnc(-c2ccccc2)o1` (centres unmarked) [Compound 1-39, [1-(4′-{4-[Hydroxy-(5-phenyl-[1,3,4]oxadiazol-2-yl)-methyl]-3-methyl-isoxazol-5-yl}-biphenyl-4-yl)-cyclopropyl]-acetic acid], the IC50 was less than 0.3 µM.
The same measure for `Cc1noc(-c2ccc(-c3ccc(C4(CC(=O)O)CC4)cc3)cc2)c1NC(C)c1cc(-c2ccccc2)no1` (centres unmarked) [Compound 1-42, [1-(4′-{3-Methyl-4-[1-(3-phenyl-isoxazol-5-yl)-ethylamino]-isoxazol-5-yl}-biphenyl-4-yl)-cyclopropyl]-acetic acid]: less than 0.3 µM; for `Cc1noc(-c2ccc(-c3ccc(C4(CC(=O)O)CC4)cc3)cc2)c1NC(C)Cc1ccc(OCc2ccc(C(F)(F)F)cc2)cc1` (centres unmarked) [Compound 1-45, {1-[4′-(3-Methyl-4-{1-methyl-2-[4-(4-trifluoromethyl-benzyloxy)-phenyl]-ethylamino}-isoxazol-5-yl)-biphenyl-4-yl]-cyclopropyl}-acetic acid]: 0.3 to 1 µM; for `Cc1noc(-c2ccc(-c3ccc(C4(C(=O)O)CC4)cc3)cc2)c1C(O)c1nnc(Cc2cccc(C(F)(F)F)c2)o1` (centres unmarked) [Compound 1-46, 1-[4′-(4-{Hydroxy-[5-(3-trifluoromethyl-benzyl)-[1,3,4]oxadiazol-2-yl]-methyl}-3-methyl-isoxazol-5-yl)-biphenyl-4-yl]-cyclopropanecarboxylic acid]: 0.3 to 1 µM.
As to `Cc1noc(-c2ccc(-c3ccc(C4(C(=O)O)CC4)cc3)cc2)c1C(NS(C)(=O)=O)c1cn(Cc2ccccc2)nn1` (centres unmarked) [Compound 1-47, 1-(4′-{4-[(1-Benzyl-1H-[1,2,3]triazol-4-yl)-methanesulfonylamino-methyl]-3-methyl-isoxazol-5-yl}-biphenyl-4-yl)-cyclopropanecarboxylic acid], the IC50 is greater than 50 µM.
As for `Cc1noc(-c2ccc(-c3ccc(CC(=O)O)cc3)cc2)c1C(O)c1cn(Cc2ccccc2)nn1` (centres unmarked) [Compound 1-48, (4′-{4-[(1-Benzyl-1H-[1,2,3]triazol-4-yl)-hydroxy-methyl]-3-methyl-isoxazol-5-yl}-biphenyl-4-yl)-acetic acid], the figure is less than 0.3 µM; as for `Cc1noc(-c2ccc(-c3ccc(CCC(=O)O)cc3)cc2)c1C(O)c1cn(Cc2ccccc2)nn1` (centres unmarked) [Compound 1-49, 3-(4′-{4-[(1-Benzyl-1H-[1,2,3]triazol-4-yl)-hydroxy-methyl]-3-methyl-isoxazol-5-yl}-biphenyl-4-yl)-propionic acid], less than 0.3 µM; as for `Cc1noc(-c2ccc(-c3ccc(C4(C(=O)O)CC4)cc3)cc2)c1C(O)c1cn(Cc2cccc(C(F)(F)F)c2)nn1` (centres unmarked) [Compound 1-50, 1-[4′-(4-{Hydroxy-[1-(3-trifluoromethyl-benzyl)-1H-[1,2,3]triazol-4-yl]-methyl}-3-methyl-isoxazol-5-yl)-biphenyl-4-yl]-cyclopropanecarboxylic acid], 1 to 50 µM.
